Drawing on the RepoRT retention time repository (doi:10.1016/j.foodchem.2021.129757), this text covers LC retention time for 11 compounds.

SMILES strings stand for the structures.

The first data set can be described thus: RP, 50 × 0.5 mm, 2.7 µm, 35 °C, 0.01 mL/min, estimated dead time 0.62 min; A: water + 0.1% formic acid, pH 3; B: acetonitrile + 0.1% formic acid, pH 3; gradient (min/%B) 0/5 12/95 14/95 16/5. Particulars: stereoisomer not certain.
Take `O=C(C=Cc1ccc(O)c(O)c1)OC1CC(O)(C(=O)O)CC(O)C1O` (stereo not given) [Chlorogenic acid]: the LC retention time is 3.38 min.

Another data set is described as follows: Other, Phenomenex Kinetex PFP, 100 × 4.6 mm, 5 µm, 45 °C, 0.6 mL/min, estimated dead time 1.8 min; A: water + 0.1% trifluoroacetic acid, pH 2; B: methanol; gradient (min/%B) 0/40 20/72 21/40. Particulars: stereoisomer not certain.
Consider `O=C(O)c1ccc(O)c(O)c1O` [2,3,4-Trihydroxybenzoic acid], for which the LC retention time was 4.34 min.

For the compound `O=c1cc2oc(-c3cc(O)c(O)c(O)c3)c(O)cc-2c(O)c1` [Delphinidin], the LC retention time was 8.44 min.

For `O=C(O)c1ccc(O)cc1` [4-Hydroxybenzoic acid], the LC retention time is 5.08 min.

Turning to `COc1ccc(C2CC(=O)c3c(O)cc(OC4OC(COC5OC(C)C(O)C(O)C5O)C(O)C(O)C4O)cc3O2)cc1O` (stereo not given) [Hesperidin], the LC retention time was 9.9 min.

In the case of `O=c1c(O)c(-c2ccc(O)c(O)c2)oc2cc(O)cc(O)c12` [Quercetin], the LC retention time is 16.6 min.

Consider `O=C1c2c(O)cc(O)cc2OC(c2ccc(O)c(O)c2)C1O` (stereo not given) [Taxifolin], for which the LC retention time was 7.73 min.

Turning to `Oc1ccc(-c2[o+]c3cc(O)cc(O)c3cc2O)cc1` [Pelargonidin], the LC retention time is 12.9 min.

Turning to `CC1OC(OCC2OC(Oc3c(-c4ccc(O)c(O)c4)oc4cc(O)cc(O)c4c3=O)C(O)C(O)C2O)C(O)C(O)C1O` (stereo not given) [Rutin], the LC retention time was 8.63 min.

Turning to `COc1cc(-c2[o+]c3cc(O)cc(O)c3cc2O)cc(OC)c1O` [Malvidin], the LC retention time was 14.3 min.

In the case of `O=C(C=Cc1ccc(O)c(O)c1)OC1CC(O)(C(=O)O)CC(O)C1O` (stereo not given) [Chlorogenic acid], the LC retention time was 4.03 min.

The nature of the next data set: RP, 150 × 2.1 mm, 2.6 µm, 40 °C, 0.35 mL/min, estimated dead time 0.94 min; A: water + 0.1% formic acid, pH 3; B: acetonitrile + 0.1% formic acid, pH 3; gradient (min/%B) 0/0 1/0 12.5/100 14/100 14.2/0 15/0. To be noted: stereoisomer not certain.
For `COc1ccc(C2CC(=O)c3c(O)cc(OC4OC(COC5OC(C)C(O)C(O)C5O)C(O)C(O)C4O)cc3O2)cc1O` (stereo not given) [Hesperidin], the LC retention time is 6 min.

Regarding `O=C1c2c(O)cc(O)cc2OC(c2ccc(O)c(O)c2)C1O` (stereo not given) [Taxifolin], the LC retention time is 5.84 min.

A short description of a further data set: RP, 150 × 2.1 mm, 2.6 µm, 40 °C, 0.35 mL/min, estimated dead time 0.94 min; A: water + 0.1% formic acid, pH 3; B: acetonitrile + 0.1% formic acid, pH 3; gradient (min/%B) 0/0 1/5 7/45 8.5/80 10.5/80 11/5 12/5. To be noted: stereoisomer not certain.
Take `COc1ccc(C2CC(=O)c3c(O)cc(OC4OC(COC5OC(C)C(O)C(O)C5O)C(O)C(O)C4O)cc3O2)cc1O` (stereo not given) [Hesperidin]: the LC retention time was 6.18 min.

`O=C1c2c(O)cc(O)cc2OC(c2ccc(O)c(O)c2)C1O` (stereo not given) [Taxifolin]: the LC retention time was 5.86 min.

A short description of another data set: RP, Phenomenex Kinetex EVO C18, 100 × 2.1 mm, 2.6 µm, 40 °C, 0.4 mL/min, estimated dead time 0.55 min; A: water + 0.2% formic acid; B: acetonitrile + 0.2% formic acid; gradient (min/%B) 0/5 0.5/5 7/95 8/95 8.5/5 12/5. To be noted: stereoisomer not certain.
In the case of `O=C(O)c1ccc(O)cc1` [4-Hydroxybenzoic acid], the LC retention time is 2.18 min.

The next data set can be described thus: RP, Phenomenex Luna Omega Polar C18, 100 × 2.1 mm, 1.6 µm, 40 °C, 0.5 mL/min, estimated dead time 0.44 min; A: water + 0.5% formic acid; B: acetonitrile + 0.5% formic acid; gradient (min/%B) 0/5 3/50 3.1/100 5/100 5.1/5 7/5. Particulars: stereoisomer not certain.
Take `O=C(C=Cc1ccc(O)c(O)c1)OC1CC(O)(C(=O)O)CC(O)C1O` (stereo not given) [Chlorogenic acid]: the LC retention time is 1.81 min.

A short description of the next data set: RP, Phenomenex Luna C18, 150 × 4.6 mm, 3 µm, 25 °C, 0.5 mL/min, estimated dead time 3.2 min; A: water + 0.1% formic acid, pH 3; B: acetonitrile + 0.1% formic acid, pH 3; gradient (min/%B) 0/0 30/30 35/40 50/80 52/80 60/0 65/0. Particulars: stereoisomer not certain.
Take `O=c1oc2c(O)c(O)cc3c(=O)oc4c(O)c(O)cc1c4c23` [Ellagic acid]: the LC retention time is 14.2 min.

As for `O=C(C=Cc1ccc(O)c(O)c1)OC1CC(O)(C(=O)O)CC(O)C1O` (stereo not given) [Chlorogenic acid], the LC retention time is 12.3 min.

The nature of another data set: RP, Waters ACQUITY UPLC HSS T3, 100 × 2.1 mm, 50 °C; A: water + 0.1% formic acid, pH 3; B: 30% methanol + 70% acetonitrile + 0.1% formic acid, pH 3; gradient (min/%B) 0/5 1/8 2/15 3/40 4/70 4.5/100 5/100 6.4/100 6.6/5 6.8/5 7/5. Particulars: stereoisomer not certain.
As for `O=C(O)c1ccc(O)cc1` [4-Hydroxybenzoic acid], the LC retention time was 2.8 min.

As to `O=c1c(O)c(-c2ccc(O)c(O)c2)oc2cc(O)cc(O)c12` [Quercetin], the LC retention time came to 3.74 min.

The nature of a further data set: RP, Merck LiChrospher RP-18, 250 × 4 mm, 5 µm, 35 °C, 0.3 mL/min, estimated dead time 6.7 min; A: water + 0.5% formic acid; B: acetonitrile + 0.5% formic acid; gradient (min/%B) 0/5 10/5 30/15 45/20 65/20 95/54 110/63 115/5 135/5. Particulars: stereoisomer not certain.
`O=C(O)c1ccc(O)cc1` [4-Hydroxybenzoic acid]: the LC retention time is 39.7 min.

On to `COc1ccc(C2CC(=O)c3c(O)cc(OC4OC(COC5OC(C)C(O)C(O)C5O)C(O)C(O)C4O)cc3O2)cc1O` (stereo not given) [Hesperidin], for which the LC retention time is 75.1 min.

With `O=c1c(O)c(-c2ccc(O)c(O)c2)oc2cc(O)cc(O)c12` [Quercetin], the LC retention time is 91 min.

As for `O=c1oc2c(O)c(O)cc3c(=O)oc4c(O)c(O)cc1c4c23` [Ellagic acid], the LC retention time is 60.3 min.

Regarding `Oc1ccc(-c2[o+]c3cc(O)cc(O)c3cc2O)cc1` [Pelargonidin], the LC retention time is 42 min.

For `CC1OC(OCC2OC(Oc3c(-c4ccc(O)c(O)c4)oc4cc(O)cc(O)c4c3=O)C(O)C(O)C2O)C(O)C(O)C1O` (stereo not given) [Rutin], the LC retention time was 59.2 min.

As to `O=C(C=Cc1ccc(O)c(O)c1)OC1CC(O)(C(=O)O)CC(O)C1O` (stereo not given) [Chlorogenic acid], the LC retention time was 41.1 min.

The nature of another data set: RP, Phenomenex Luna Omega Polar C18, 100 × 2.1 mm, 1.6 µm, 40 °C, 0.5 mL/min, estimated dead time 0.44 min; A: water + 0.1% formic acid + 10 mM ammonium formate; B: acetonitrile; gradient (min/%B) 0/5 8/20 10/100 12/100 12.1/5 14/5. To be noted: stereoisomer not certain.
Consider `O=C(C=Cc1ccc(O)c(O)c1)OC1CC(O)(C(=O)O)CC(O)C1O` (stereo not given) [Chlorogenic acid], for which the LC retention time is 3.49 min.

A short description of a further data set: RP, Waters ACQUITY UPLC HSS T3, 100 × 2.1 mm, 1.8 µm, 30 °C, 0.4 mL/min, estimated dead time 0.55 min; A: water + 0.1% formic acid, pH 3; B: acetonitrile + 0.1% formic acid, pH 3; gradient (min/%B) 0/0 2/0 15/100 22/100 22.1/0 26/0. Particulars: stereoisomer not certain.
As to `COc1ccc(C2CC(=O)c3c(O)cc(OC4OC(COC5OC(C)C(O)C(O)C5O)C(O)C(O)C4O)cc3O2)cc1O` (stereo not given) [Hesperidin], the LC retention time was 9.62 min.

As for `O=c1c(O)c(-c2ccc(O)c(O)c2)oc2cc(O)cc(O)c12` [Quercetin], the LC retention time is 11 min.

For the compound `O=C1c2c(O)cc(O)cc2OC(c2ccc(O)c(O)c2)C1O` (stereo not given) [Taxifolin], the LC retention time is 9.67 min.

Take `O=C(C=Cc1ccc(O)c(O)c1)OC1CC(O)(C(=O)O)CC(O)C1O` (stereo not given) [Chlorogenic acid]: the LC retention time was 8.02 min.

A further data set is described as follows: RP, Agilent ZORBAX Eclipse XDB-C18, 100 × 2.1 mm, 1.8 µm, 50 °C, 0.4 mL/min, estimated dead time 0.55 min; A: water + 0.1% formic acid, pH 3; B: methanol + 0.1% formic acid, pH 3; gradient (min/%B) 0/2 10/100 14.5/100 14.51/2 16.5/2. Particulars: stereoisomer not certain.
Regarding `O=C(O)c1ccc(O)cc1` [4-Hydroxybenzoic acid], the LC retention time is 2.91 min.

On to `O=C(C=Cc1ccc(O)c(O)c1)OC1CC(O)(C(=O)O)CC(O)C1O` (stereo not given) [Chlorogenic acid], for which the LC retention time was 3.27 min.

The next data set can be described thus: RP, Waters ACQUITY UPLC BEH C18, 100 × 2.1 mm, 1.7 µm, 65 °C, 0.4 mL/min, estimated dead time 0.55 min; A: water + 0.1% formic acid, pH 3; B: 80% acetonitrile + 20% acetone + 0.1% formic acid, pH 3; gradient (min/%B) 0/0 5/100 5.5/0 6/0. To be noted: stereoisomer not certain.
On to `O=C(O)c1ccc(O)cc1` [4-Hydroxybenzoic acid], for which the LC retention time was 1.65 min.

`O=c1c(O)c(-c2ccc(O)c(O)c2)oc2cc(O)cc(O)c12` [Quercetin]: the LC retention time is 2.63 min.

On to `O=c1oc2c(O)c(O)cc3c(=O)oc4c(O)c(O)cc1c4c23` [Ellagic acid], for which the LC retention time is 1.91 min.

With `O=C(C=Cc1ccc(O)c(O)c1)OC1CC(O)(C(=O)O)CC(O)C1O` (stereo not given) [Chlorogenic acid], the LC retention time was 1.64 min.

A further data set in a line: RP, Waters ACQUITY UPLC BEH Shield RP18, 100 × 2.1 mm, 1.7 µm, 30 °C, 0.6 mL/min, estimated dead time 0.37 min; A: water + 0.1% formic acid, pH 3; B: acetonitrile + 0.1% formic acid, pH 3; gradient (min/%B) 0/0 2/0 7/10 22/95 22.1/0 26/0. To be noted: stereoisomer not certain.
In the case of `O=c1oc2c(O)c(O)cc3c(=O)oc4c(O)c(O)cc1c4c23` [Ellagic acid], the LC retention time is 13.1 min.
